Assay results from PMC5218480 (PLoS ONE, 2017).

Tested on: MV-4-11 cells
Test: Gene expression microarray analysis (Affymetrix PrimeView) and GSEA
Format: cell-based, human
Design: RFU PODN (11730768_x_at) / Fold change /veh PODN (11730768_x_at) / RFU LINC00158 (11744669_a_at) / Fold change /veh LINC00158 (11744669_a_at) / RFU DUSP10 (11751237_a_at) / Fold change /veh DUSP10 (11751237_a_at) / RFU ID3 (11757404_x_at) / Fold change /veh ID3 (11757404_x_at) / RFU PLEKHG5 (11737974_s_at) / Fold change /veh PLEKHG5 (11737974_s_at) / RFU LRRC4B (11730491_at) / Fold change /veh LRRC4B (11730491_at) / RFU GIMAP4 (11747438_a_at) / Fold change /veh GIMAP4 (11747438_a_at) / RFU KRT8 (11758183_x_at) / Fold change /veh KRT8 (11758183_x_at) / RFU CNN1 (11734310_a_at) / Fold change /veh CNN1 (11734310_a_at) / RFU VPS37D (11726825_at) / Fold change /veh VPS37D (11726825_at) / RFU C10orf10 (11716522_x_at) / Fold change /veh C10orf10 (11716522_x_at) / RFU KIR2DL2 /// KIR2DL4 /// KIR2DL5A /// KIR2DL5B /// KIR2DS1 /// KIR2DS2 /// KIR2DS3 /// KIR2DS4 /// KIR3DL3 /// KIR3DL3 /// KIR3DS1 (11738374_at) / Fold change /veh KIR2DL2 /// KIR2DL4 /// KIR2DL5A /// KIR2DL5B /// KIR2DS1 /// KIR2DS2 /// KIR2DS3 /// KIR2DS4 /// KIR3DL3 /// KIR3DL3 /// KIR3DS1 (11738374_at) / RFU C1QL1 (11718748_at) / Fold change /veh C1QL1 (11718748_at) / RFU TMPRSS4 (11747572_a_at) / Fold change /veh TMPRSS4 (11747572_a_at) / RFU HAMP (11756126_x_at) / Fold change /veh HAMP (11756126_x_at) / RFU RNFT2 (11725882_a_at) / Fold change /veh RNFT2 (11725882_a_at) / RFU NR4A2 (11747474_a_at) / Fold change /veh NR4A2 (11747474_a_at) / RFU ABCC12 (11746883_a_at) / Fold change /veh ABCC12 (11746883_a_at) / RFU TMEM136 (11760407_x_at) / Fold change /veh TMEM136 (11760407_x_at) / RFU CLDN22 /// WWC2 (11732394_at) / Fold change /veh CLDN22 /// WWC2 (11732394_at) / RFU HLA-DPB1 (11760878_x_at) / Fold change /veh HLA-DPB1 (11760878_x_at) / RFU SPINT1 (11716480_a_at) / Fold change /veh SPINT1 (11716480_a_at) / RFU GAP43 (11754022_s_at) / Fold change /veh GAP43 (11754022_s_at) / RFU A4GNT (11735810_at) / Fold change /veh A4GNT (11735810_at) / RFU PRB3 (11715151_x_at) / Fold change /veh PRB3 (11715151_x_at) / RFU TUBB4B (11761932_at) / Fold change /veh TUBB4B (11761932_at) / RFU CAPN14 (11732068_a_at) / Fold change /veh CAPN14 (11732068_a_at) / RFU TMCC2 (11721928_a_at) / Fold change /veh TMCC2 (11721928_a_at) / RFU IRGQ (11745062_a_at) / Fold change /veh IRGQ (11745062_a_at) / RFU FAM174B (11720279_a_at) / Fold change /veh FAM174B (11720279_a_at) / RFU TMPRSS4 (11748680_a_at) / Fold change /veh TMPRSS4 (11748680_a_at) / RFU FAM212B (11763350_a_at) / Fold change /veh FAM212B (11763350_a_at) / RFU PLEKHG5 (11743358_a_at) / Fold change /veh PLEKHG5 (11743358_a_at) / RFU ZSCAN30 (11745921_a_at) / Fold change /veh ZSCAN30 (11745921_a_at) / RFU CMKLR1 (11741424_a_at) / Fold change /veh CMKLR1 (11741424_a_at) / RFU LOC101060620 /// MAPK8IP1 (11723275_at) / Fold change /veh LOC101060620 /// MAPK8IP1 (11723275_at) / RFU SPTSSB (11747773_x_at) / Fold change /veh SPTSSB (11747773_x_at) / RFU PRSS12 (11739890_at) / Fold change /veh PRSS12 (11739890_at) / RFU BIN1 (11741810_x_at) / Fold change /veh BIN1 (11741810_x_at) / RFU WNT11 (11732464_a_at) / Fold change /veh WNT11 (11732464_a_at) / RFU C10orf10 (11716521_a_at) / Fold change /veh C10orf10 (11716521_a_at) / RFU C5orf56 (11738089_at) / Fold change /veh C5orf56 (11738089_at) / RFU CYB561 (11721691_x_at) / Fold change /veh CYB561 (11721691_x_at) / RFU ANKRD19P (11752326_a_at) / Fold change /veh ANKRD19P (11752326_a_at) / RFU OR2T12 /// OR2T33 /// OR2T8 (11738714_s_at) / Fold change /veh OR2T12 /// OR2T33 /// OR2T8 (11738714_s_at) / RFU VCAN (11748164_a_at) / Fold change /veh VCAN (11748164_a_at) / RFU JSRP1 (11732532_at) / Fold change /veh JSRP1 (11732532_at) / RFU KRTAP10-11 (11738290_x_at) / Fold change /veh KRTAP10-11 (11738290_x_at) / RFU MYO3A (11730013_a_at) / Fold change /veh MYO3A (11730013_a_at) / RFU EBF3 (11725865_a_at) / Fold change /veh EBF3 (11725865_a_at) / RFU CAMK2N1 (11719241_x_at) / Fold change /veh CAMK2N1 (11719241_x_at) / RFU C5orf56 (11738088_a_at) / Fold change /veh C5orf56 (11738088_a_at) / RFU OLFML3 (11715873_a_at) / Fold change /veh OLFML3 (11715873_a_at) / RFU LOC100653217 /// NTM (11731650_a_at) / Fold change /veh LOC100653217 /// NTM (11731650_a_at) / RFU MAPK11 (11762145_a_at) / Fold change /veh MAPK11 (11762145_a_at) / RFU FIZ1 (11724087_x_at) / Fold change /veh FIZ1 (11724087_x_at) / RFU OASL (11726364_x_at) / Fold change /veh OASL (11726364_x_at) / RFU SOX15 (11748057_x_at) / Fold change /veh SOX15 (11748057_x_at) / RFU CD79A (11719716_a_at) / Fold change /veh CD79A (11719716_a_at) / RFU HIST1H1D (11736915_at) / Fold change /veh HIST1H1D (11736915_at) / RFU CASKIN2 (11723855_a_at) / Fold change /veh CASKIN2 (11723855_a_at) / RFU LOC730098 (11760151_x_at) / Fold change /veh LOC730098 (11760151_x_at) / RFU OR4N2 (11742367_at) / Fold change /veh OR4N2 (11742367_at) / RFU PRRT2 (11749266_a_at) / Fold change /veh PRRT2 (11749266_a_at) / RFU SNX32 (11753110_a_at) / Fold change /veh SNX32 (11753110_a_at) / RFU CDHR5 (11726645_a_at) / Fold change /veh CDHR5 (11726645_a_at) / RFU RCAN1 (11760418_a_at) / Fold change /veh RCAN1 (11760418_a_at) / RFU FAM167A (11723789_a_at) / Fold change /veh FAM167A (11723789_a_at) / RFU FAM26E (11764081_at) / Fold change /veh FAM26E (11764081_at) / RFU ISYNA1 (11749810_s_at) / Fold change /veh ISYNA1 (11749810_s_at) / RFU ACY1 (11761880_at) / Fold change /veh ACY1 (11761880_at) / RFU 11764098_at / Fold change /veh 11764098_at / RFU SAMD14 (11745864_x_at) / Fold change /veh SAMD14 (11745864_x_at) / RFU NPB (11741838_a_at) / Fold change /veh NPB (11741838_a_at) / RFU TMPRSS6 (11731388_a_at) / Fold change /veh TMPRSS6 (11731388_a_at) / RFU KRTAP10-2 (11738614_at) / Fold change /veh KRTAP10-2 (11738614_at) / RFU ARHGAP8 /// PRR5-ARHGAP8 (11727945_x_at) / Fold change /veh ARHGAP8 /// PRR5-ARHGAP8 (11727945_x_at) / RFU KRTAP5-7 /// NADSYN1 (11734609_at) / Fold change /veh KRTAP5-7 /// NADSYN1 (11734609_at) / RFU RASL12 (11751679_a_at) / Fold change /veh RASL12 (11751679_a_at) / RFU CDKN2B (11736163_a_at) / Fold change /veh CDKN2B (11736163_a_at) / RFU PRF1 (11729649_at) / Fold change /veh PRF1 (11729649_at) / RFU, ZNF638 /// ZNF638-IT1 / Fold change vs veh, ZNF638 /// ZNF638-IT1 / RFU, PANK3 / Fold change vs veh, PANK3 / RFU, SH3YL1 / Fold change vs veh, SH3YL1 / RFU, ZEB2 / Fold change vs veh, ZEB2 / RFU, NRIP1 / Fold change vs veh, NRIP1 / RFU, PTTG1IP / Fold change vs veh, PTTG1IP / RFU, CAPN2 / Fold change vs veh, CAPN2 / RFU, MED14 / Fold change vs veh, MED14 / RFU, SNORA58 / Fold change vs veh, SNORA58 / RFU, C1orf63 / Fold change vs veh, C1orf63 / RFU, LRRFIP1 / Fold change vs veh, LRRFIP1 / RFU, NDUFAF7 / Fold change vs veh, NDUFAF7 / RFU, SLC12A2 / Fold change vs veh, SLC12A2 / RFU, IBTK / Fold change vs veh, IBTK / RFU, ESF1 / Fold change vs veh, ESF1 / Fold change vs veh, TMEM50B / RFU, TAOK1 / Fold change vs veh, TAOK1 / RFU, ACBD3 / Fold change vs veh, ACBD3 / RFU, TMA16 / Fold change vs veh, TMA16 / RFU, RWDD3 / Fold change vs veh, RWDD3 / RFU, BCAT1 / Fold change vs veh, BCAT1 / RFU, EDEM3 / Fold change vs veh, EDEM3 / RFU, TMEM33 / Fold change vs veh, TMEM33 / RFU, WDR75 / Fold change vs veh, WDR75 / RFU, AHCTF1 / Fold change vs veh, AHCTF1 / RFU, TFRC / Fold change vs veh, TFRC / RFU, ZDHHC17 / Fold change vs veh, ZDHHC17 / RFU, NOM1 / Fold change vs veh, NOM1 / RFU, ARL8B / Fold change vs veh, ARL8B / RFU, ZBTB11 / Fold change vs veh, ZBTB11 / RFU, TAMM41 / Fold change vs veh, TAMM41 / RFU, KIAA1704 /// LOC100996395 / Fold change vs veh, KIAA1704 /// LOC100996395 / RFU, ING1 / Fold change vs veh, ING1 / RFU, TRMT61B / Fold change vs veh, TRMT61B / RFU, FUBP3 / Fold change vs veh, FUBP3 / RFU, TP53 / Fold change vs veh, TP53 / RFU, TNKS2 / Fold change vs veh, TNKS2 / RFU, ZFP14 / Fold change vs veh, ZFP14 / RFU, ACTR2 / Fold change vs veh, ACTR2 / RFU, PPP3R1 / Fold change vs veh, PPP3R1 / RFU, PIK3R1 / Fold change vs veh, PIK3R1 / RFU, HNRNPA1 / Fold change vs veh, HNRNPA1 / RFU, RNF170 / Fold change vs veh, RNF170 / RFU, ZNF28 / Fold change vs veh, ZNF28 / RFU, RNGTT / Fold change vs veh, RNGTT / RFU, OGT / Fold change vs veh, OGT / RFU, BRD1 / Fold change vs veh, BRD1 / RFU, MARS / Fold change vs veh, MARS / RFU, ZNF655 / Fold change vs veh, ZNF655 / RFU, FAHD1 / Fold change vs veh, FAHD1 / RFU, BDP1 / Fold change vs veh, BDP1 / RFU, LRRCC1 / Fold change vs veh, LRRCC1 / RFU, ARID1A / Fold change vs veh, ARID1A / RFU, ZNF146 / Fold change vs veh, ZNF146 / RFU, ZNF330 / Fold change vs veh, ZNF330 / RFU, GPN3 / Fold change vs veh, GPN3 / RFU, C9orf123 / Fold change vs veh, C9orf123 / RFU, N4BP2L2 / Fold change vs veh, N4BP2L2 / RFU, ARFIP1 / Fold change vs veh, ARFIP1 / RFU, FAM179B / Fold change vs veh, FAM179B / RFU, BCL10 / Fold change vs veh, BCL10 / RFU, UHRF1BP1L / Fold change vs veh, UHRF1BP1L / RFU, BET1 / Fold change vs veh, BET1 / RFU, CNOT2 / Fold change vs veh, CNOT2 / RFU, ZNF268 / Fold change vs veh, ZNF268 / Fold change vs veh, ZNF507 / RFU, DGCR2 / Fold change vs veh, DGCR2 / RFU, WDSUB1 / Fold change vs veh, WDSUB1 / Fold change vs veh, HSP90B1 /// MIR3652 / RFU, ADSS / Fold change vs veh, ADSS / RFU, GK / Fold change vs veh, GK / RFU, ZNF148 / Fold change vs veh, ZNF148 / RFU, TAF9 / Fold change vs veh, TAF9 / RFU, SLC1A5 / Fold change vs veh, SLC1A5 / RFU, SLMO2 / Fold change vs veh, SLMO2 / RFU, ABCC4 / Fold change vs veh, ABCC4 / RFU, LOC101060439 /// RAP1B / Fold change vs veh, LOC101060439 /// RAP1B / RFU, RFX7 / Fold change vs veh, RFX7 / RFU, GTPBP10 / Fold change vs veh, GTPBP10 / RFU, CNEP1R1 / Fold change vs veh, CNEP1R1 / RFU, BIVM-ERCC5 /// ERCC5 / Fold change vs veh, BIVM-ERCC5 /// ERCC5 / RFU, ILF3 / Fold change vs veh, ILF3 / RFU 11762660_at / Fold change /veh 11762660_at / RFU VCAN (11757783_s_at) / Fold change /veh VCAN (11757783_s_at) / RFU DDX43 (11728927_at) / Fold change /veh DDX43 (11728927_at) / RFU KRT8 (11758188_x_at) / Fold change /veh KRT8 (11758188_x_at) / RFU NKD1 (11759106_at) / Fold change /veh NKD1 (11759106_at) / RFU SRD5A1 (11742802_a_at) / Fold change /veh SRD5A1 (11742802_a_at) / RFU TPSAB1 /// TPSB2 (11721975_s_at) / Fold change /veh TPSAB1 /// TPSB2 (11721975_s_at) / RFU GSTM3 (11746129_a_at) / Fold change /veh GSTM3 (11746129_a_at) / RFU IL23R (11737362_x_at) / Fold change /veh IL23R (11737362_x_at) / RFU TMEM51 (11727254_a_at) / Fold change /veh TMEM51 (11727254_a_at) / RFU PIWIL2 (11732686_x_at) / Fold change /veh PIWIL2 (11732686_x_at) / RFU ORM1 (11744905_x_at) / Fold change /veh ORM1 (11744905_x_at) / RFU CCDC152 (11743942_at) / Fold change /veh CCDC152 (11743942_at) / RFU ECM1 (11717891_a_at) / Fold change /veh ECM1 (11717891_a_at) / RFU IL23R (11748794_a_at) / Fold change /veh IL23R (11748794_a_at) / RFU TNFAIP8L3 (11732012_x_at) / Fold change /veh TNFAIP8L3 (11732012_x_at) / RFU MBOAT4 (11741988_at) / Fold change /veh MBOAT4 (11741988_at) / RFU 11764193_at / Fold change /veh 11764193_at / RFU TMEM53 (11763286_at) / Fold change /veh TMEM53 (11763286_at) / RFU MAGEB2 (11727129_at) / Fold change /veh MAGEB2 (11727129_at) / RFU TMEM200A (11744735_a_at) / Fold change /veh TMEM200A (11744735_a_at) / RFU CCDC152 (11751479_a_at) / Fold change /veh CCDC152 (11751479_a_at) / RFU FAM211A (11726209_a_at) / Fold change /veh FAM211A (11726209_a_at) / RFU RGS16 (11746705_a_at) / Fold change /veh RGS16 (11746705_a_at) / RFU VCAN (11755009_s_at) / Fold change /veh VCAN (11755009_s_at) / RFU RHOB (11743442_s_at) / Fold change /veh RHOB (11743442_s_at) / RFU RGS16 (11720943_a_at) / Fold change /veh RGS16 (11720943_a_at) / RFU RGS16 (11720944_at) / Fold change /veh RGS16 (11720944_at) / RFU, VPS4B / Fold change vs veh, VPS4B / RFU, CREB1 / Fold change vs veh, CREB1 / RFU, DNAJC13 / Fold change vs veh, DNAJC13 / RFU, GNAQ / Fold change vs veh, GNAQ / RFU, CDK5R1 / Fold change vs veh, CDK5R1 / RFU, ZRANB3 / Fold change vs veh, ZRANB3 / RFU, CUL4A / Fold change vs veh, CUL4A / RFU, CCNY / Fold change vs veh, CCNY / RFU, UFL1 / Fold change vs veh, UFL1 / RFU, COG3 / Fold change vs veh, COG3 / RFU, DIAPH2 / Fold change vs veh, DIAPH2 / RFU, SKA2 / Fold change vs veh, SKA2 / RFU, AFF3 / Fold change vs veh, AFF3 / RFU, LMF1 / Fold change vs veh, LMF1 / RFU, IPO11 / Fold change vs veh, IPO11 / RFU, DFFB / Fold change vs veh, DFFB / RFU, FOXP1 / Fold change vs veh, FOXP1 / RFU, CARD8 / Fold change vs veh, CARD8 / RFU, STRN3 / Fold change vs veh, STRN3 / RFU, ADK / Fold change vs veh, ADK / RFU, RASSF2 / Fold change vs veh, RASSF2 / RFU, WIPF1 / Fold change vs veh, WIPF1 / RFU, LARP1B / Fold change vs veh, LARP1B / RFU, RASA1 / Fold change vs veh, RASA1 / RFU, RB1 / Fold change vs veh, RB1 / RFU, PPFIA1 / Fold change vs veh, PPFIA1 / RFU, MAT2A / Fold change vs veh, MAT2A / RFU, CCT5 / Fold change vs veh, CCT5 / RFU, WDR92 / Fold change vs veh, WDR92 / RFU, CUX1 / Fold change vs veh, CUX1 / RFU, TTC7A / Fold change vs veh, TTC7A / RFU, TMEM135 / Fold change vs veh, TMEM135 / RFU, DEPTOR / Fold change vs veh, DEPTOR / RFU, CPM / Fold change vs veh, CPM / RFU, DNAJB6 / Fold change vs veh, DNAJB6 / RFU, CACNA2D3 / Fold change vs veh, CACNA2D3 / RFU, DTX4 / Fold change vs veh, DTX4 / RFU, TFCP2 / Fold change vs veh, TFCP2 / RFU, GMCL1 /// GMCL1P1 / Fold change vs veh, GMCL1 /// GMCL1P1 / RFU, AEBP2 / Fold change vs veh, AEBP2 / RFU, SNHG1 /// SNORD22 /// SNORD25 /// SNORD26 /// SNORD27 /// SNORD28 /// SNORD29 /// SNORD31 / Fold change vs veh, SNHG1 /// SNORD22 /// SNORD25 /// SNORD26 /// SNORD27 /// SNORD28 /// SNORD29 /// SNORD31 / Fold change (Aza/veh), C12orf56 (ProbeSet 11735607_a_at) / Fold change (ACY-1035/veh), C12orf56 (ProbeSet 11735607_a_at) / Fold change (Aza/veh), FGFR1OP (ProbeSet 11751329_s_at) / Fold change (ACY-1035/veh), FGFR1OP (ProbeSet 11751329_s_at) / Fold change (Aza/veh), VPS36 (ProbeSet 11739960_a_at) / Fold change (ACY-1035/veh), VPS36 (ProbeSet 11739960_a_at) / RFU SYPL1 (11715823_x_at) / Fold change /veh SYPL1 (11715823_x_at) / RFU IGFBP7 (11715501_s_at) / Fold change /veh IGFBP7 (11715501_s_at) / RFU REEP3 (11722064_at) / Fold change /veh REEP3 (11722064_at) / RFU IGLL1 (11728026_x_at) / Fold change /veh IGLL1 (11728026_x_at): dose or concentration left out as unconfirmed
Conditions: ProbeSet 11747888_a_at; LIST D

Nc1ncn([C@@H]2O[C@H](CO)[C@@H](O)[C@H]2O)c(=O)n1 [azacitidine]
RFU, SH3YL1: 53.76 RFU
